Data set [1] is described as follows: Solubility studies (turbidity or clarity of the resultant solution). In kind it is physicochemical. The following applies: duloxetine present along with one or more cyclodextrin or derivatives, as physical admixture or complex. How it is done:
Weighed amount of duloxetine hydrochloride was dispersed in required quantity of water at room temperature. To the above dispersion sodium bicarbonate, propylene glycol, sodium lauryl sulphate or Hydroxypropyl Beta-cyclodextrin was added in requisite amount as specified in Table 5.

The conditions of data set [2]: water; cited from earlier work.
The conditions of data set [3]: acidic environment of gastrointestinal tract; cited from earlier work.

Regarding `CNCC[C@H](Oc1cccc2ccccc12)c1cccs1` [Duloxetine], the “Solubility of duloxetine in presence of cyclodextrin” value in data set [1] is reported as “significant increase in solubility”. For the same molecule, the Aqueous solubility entry in data set [2] was “slightly soluble in water”. Further, the Acid stability result in data set [3] is “acid labile”.

These data come from patent publication US8758779B2, “Pharmaceutical composition of duloxetine” (Wockhardt Ltd., priority 2009, dated 2014).
